CCOC(=O)c1c(CSc2ccccc2)n(C)c2cc(Br)c(O)c(CN(C)C)c12.Cl.O
solubility (mole fraction)
Conditions | 293.15 K | 298.15 K | 303.15 K | 308.15 K | 313.15 K | 318.15 K | 323.15 K | 328.15 K | 333.15 K
in DMF | 0.0228 | 0.0244 | 0.0276 | 0.0317 | 0.0351 | 0.0396 | 0.0457 | 0.0513 | 0.0596
in NMP | 0.0325 | 0.0352 | 0.0375 | 0.0417 | 0.0462 | 0.0503 | 0.0554 | 0.0635 | 0.0722
in THF | 0.000382 | 0.000492 | 0.000678 | 0.000947 | 0.00125 | 0.00163 | 0.00211 | 0.00265 | –
in acetone | 0.000193 | 0.000252 | 0.000364 | 0.000524 | 0.000696 | 0.000937 | 0.00128 | – | –
in ethanol | 0.00973 | 0.0116 | 0.0132 | 0.0154 | 0.018 | 0.0234 | 0.0294 | 0.0366 | 0.0436
in ethyl acetate | 7.86e-05 | 0.000101 | 0.000125 | 0.000158 | 0.0002 | 0.000245 | 0.000295 | 0.000354 | 0.000426
in isopropanol | 0.00114 | 0.00161 | 0.0021 | 0.0029 | 0.00356 | 0.00476 | 0.00602 | 0.00749 | 0.00955
in methanol | 0.0405 | 0.0442 | 0.0494 | 0.0541 | 0.0622 | 0.0715 | 0.0786 | 0.0903 | –
in n-butanol | 0.00344 | 0.00441 | 0.00545 | 0.00709 | 0.00865 | 0.0105 | 0.0127 | 0.0159 | 0.0203
in n-propanol | 0.00522 | 0.00628 | 0.00728 | 0.00878 | 0.0112 | 0.0141 | 0.0171 | 0.0214 | 0.027
in water | 5.82e-05 | 7.34e-05 | 8.66e-05 | 0.000108 | 0.000126 | 0.000156 | 0.000204 | 0.000251 | 0.000309
